Reference: PubChem BioAssay (NCI)
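Growth conditions: 96-well plates. Treatment: test compound, 48 hours, 5 concentrations. Analysis: linear interpolation between bracketing concentrations; unreached endpoints set to highest concentration. GI50 marks 50% less growth. At the TGI there is no net growth.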

How the values were obtained:
Test in all cases: NCI-60 cell line screen, 48 h
K-562 leukemia = tested on: K-562 leukemia
UACC-62 melanoma = tested on: UACC-62 melanoma
SF-295 CNS = tested on: SF-295 CNS
U251 CNS = tested on: U251 CNS
SN12C renal = tested on: SN12C renal
SNB-19 CNS = tested on: SNB-19 CNS
MALME-3M melanoma = tested on: MALME-3M melanoma
MDA-MB-435 = tested on: MDA-MB-435
NCI-H23 lung = tested on: NCI-H23 lung
RXF 393 renal = tested on: RXF 393 renal

## COC1=C(C)C(=O)c2c(c(COC(N)=O)c3n2CC(OC(C)=O)C3OC(C)=O)C1=O (configuration not stated)
K-562 leukemia
  TGI: > 100 µM
UACC-62 melanoma
  TGI: 0.245 µM
SF-295 CNS
  TGI: 0.657 µM
U251 CNS
  TGI: 0.789 µM
SN12C renal
  TGI: 1.09 µM
SNB-19 CNS
  TGI: 2.09 µM
MALME-3M melanoma
  TGI: 0.156 µM
MDA-MB-435
  TGI: 0.415 µM
NCI-H23 lung
  TGI: 0.25 µM
RXF 393 renal
  TGI: 0.428 µM

## CSc1n[nH]c(N)c1C(=O)Nc1ccccc1
K-562 leukemia
  TGI: > 100 µM
UACC-62 melanoma
  TGI: > 100 µM
U251 CNS
  TGI: > 100 µM
SN12C renal
  TGI: > 100 µM
SNB-19 CNS
  TGI: > 100 µM
MALME-3M melanoma
  TGI: > 100 µM
MDA-MB-435
  TGI: > 100 µM
NCI-H23 lung
  TGI: > 100 µM
RXF 393 renal
  TGI: > 100 µM

## CN(C)CC1CCC(CN(C)C)C1=O (configuration not stated)
K-562 leukemia
  TGI: > 20.3 µM
UACC-62 melanoma
  TGI: 27.2 µM
SF-295 CNS
  TGI: 32.8 µM
U251 CNS
  TGI: 50.2 µM
SN12C renal
  TGI: 13.4 µM
SNB-19 CNS
  TGI: > 100 µM
MALME-3M melanoma
  TGI: 3.67 µM
MDA-MB-435
  TGI: > 100 µM
NCI-H23 lung
  TGI: 12.9 µM
RXF 393 renal
  TGI: 9.68 µM

## C[n+]1c(-c2ccc(/C=C/C=N\NC(=O)c3ccc(C(=O)N/N=C\C=C\c4ccc(-c5cn6ccccc6[n+]5C)cc4)cc3)cc2)cn2ccccc21
K-562 leukemia
  TGI: > 51.2 µM
UACC-62 melanoma
  TGI: > 100 µM
SF-295 CNS
  TGI: > 100 µM
U251 CNS
  TGI: > 100 µM
SN12C renal
  TGI: > 100 µM
SNB-19 CNS
  TGI: > 100 µM
MALME-3M melanoma
  TGI: > 100 µM
MDA-MB-435
  TGI: > 100 µM
NCI-H23 lung
  TGI: > 100 µM
RXF 393 renal
  TGI: > 100 µM

## COc1cc2c(cc1Cc1c(F)cccc1Cl)nc(-c1c(F)cccc1Cl)n2Cc1c(F)cccc1Cl
K-562 leukemia
  TGI: > 100 µM
UACC-62 melanoma
  TGI: > 100 µM
SF-295 CNS
  TGI: 41.3 µM
U251 CNS
  TGI: > 100 µM
SN12C renal
  TGI: > 100 µM
SNB-19 CNS
  TGI: > 100 µM
MALME-3M melanoma
  TGI: 79.9 µM
MDA-MB-435
  TGI: > 100 µM
NCI-H23 lung
  TGI: > 100 µM
RXF 393 renal
  TGI: > 100 µM

## COc1ccc(CC2COc3cc(O)cc(O)c3C2=O)cc1O (configuration not stated)
K-562 leukemia
  TGI: > 100 µM
UACC-62 melanoma
  TGI: > 100 µM
SF-295 CNS
  TGI: 24.1 µM
U251 CNS
  TGI: > 100 µM
SN12C renal
  TGI: > 100 µM
SNB-19 CNS
  TGI: > 100 µM
MALME-3M melanoma
  TGI: > 100 µM
MDA-MB-435
  TGI: 3.68 µM
NCI-H23 lung
  TGI: > 100 µM
RXF 393 renal
  TGI: > 100 µM

## COc1ccc(CN2C3CC2CN(c2ccc(-c4cc(OCC(C)(C)O)cn5ncc(C#N)c45)cn2)C3)cn1
K-562 leukemia
  GI50: > 100 µM
  TGI: > 100 µM
UACC-62 melanoma
  GI50: > 100 µM
  TGI: > 100 µM
SF-295 CNS
  GI50: 5.27 µM
  TGI: > 100 µM
U251 CNS
  GI50: 4.55 µM
  TGI: > 100 µM
SN12C renal
  GI50: 2.95 µM
  TGI: > 100 µM
SNB-19 CNS
  GI50: 20.7 µM
  TGI: > 100 µM
MALME-3M melanoma
  GI50: > 100 µM
  TGI: > 100 µM
MDA-MB-435
  GI50: > 100 µM
  TGI: > 100 µM
NCI-H23 lung
  GI50: 17.8 µM
  TGI: > 100 µM
RXF 393 renal
  GI50: 2.18 µM
  TGI: 9.45 µM

## CCON1CC(C(=O)OC)=C(O)C1=O
K-562 leukemia
  TGI: > 100 µM
UACC-62 melanoma
  TGI: > 100 µM
SF-295 CNS
  TGI: > 100 µM
U251 CNS
  TGI: > 100 µM
SNB-19 CNS
  TGI: > 100 µM
MALME-3M melanoma
  TGI: > 100 µM
MDA-MB-435
  TGI: > 100 µM
NCI-H23 lung
  TGI: > 100 µM
RXF 393 renal
  TGI: > 100 µM

## N#Cc1nc(NC(=O)c2ccccc2C(=O)O)c(C#N)[nH]1
K-562 leukemia
  TGI: > 100 µM
UACC-62 melanoma
  TGI: > 100 µM
SF-295 CNS
  TGI: > 100 µM
U251 CNS
  TGI: > 100 µM
SN12C renal
  TGI: > 100 µM
SNB-19 CNS
  TGI: > 100 µM
MALME-3M melanoma
  TGI: > 100 µM
MDA-MB-435
  TGI: > 100 µM
NCI-H23 lung
  TGI: > 100 µM

## CC(=O)OC1C(COC(=O)c2ccccc2)OC(Nc2ncc(-c3ccc(Br)cc3)s2)C(OC(=O)c2ccccc2)C1OC(=O)c1ccccc1 (configuration not stated)
K-562 leukemia
  TGI: > 100 µM
UACC-62 melanoma
  TGI: > 100 µM
SF-295 CNS
  TGI: > 100 µM
U251 CNS
  TGI: > 100 µM
SN12C renal
  TGI: > 100 µM
SNB-19 CNS
  TGI: > 100 µM
MALME-3M melanoma
  TGI: > 100 µM
MDA-MB-435
  TGI: > 100 µM
NCI-H23 lung
  TGI: > 100 µM
RXF 393 renal
  TGI: > 100 µM

## COc1ccc(C2c3cc4c(cc3OC(N3CCOCC3)C2C)OCO4)c(OC)c1OC (configuration not stated)
K-562 leukemia
  TGI: 21 µM
UACC-62 melanoma
  TGI: 69.7 µM
SF-295 CNS
  TGI: 43 µM
SN12C renal
  TGI: > 100 µM
SNB-19 CNS
  TGI: 39.1 µM
MDA-MB-435
  TGI: 7.01 µM
NCI-H23 lung
  TGI: > 100 µM

## COC(=O)c1cc(C#N)[nH]c1-c1cc(Br)cs1
K-562 leukemia
  TGI: > 79.9 µM
UACC-62 melanoma
  TGI: 38.4 µM
SF-295 CNS
  TGI: 24.7 µM
U251 CNS
  TGI: 32.1 µM
SN12C renal
  TGI: 32.3 µM
SNB-19 CNS
  TGI: 37.3 µM
MALME-3M melanoma
  TGI: 34.9 µM
MDA-MB-435
  TGI: 31.5 µM
NCI-H23 lung
  TGI: 25.7 µM
RXF 393 renal
  TGI: 23 µM

## COc1cc(NC(C)=O)ccc1C(=O)NN1C(=O)/C(=C/c2ccco2)N=C1c1ccccc1
K-562 leukemia
  TGI: > 50 µM
UACC-62 melanoma
  TGI: > 50 µM
SF-295 CNS
  TGI: > 50 µM
SN12C renal
  TGI: > 50 µM
SNB-19 CNS
  TGI: > 50 µM
MALME-3M melanoma
  TGI: > 50 µM
MDA-MB-435
  TGI: > 50 µM
NCI-H23 lung
  TGI: > 50 µM
RXF 393 renal
  TGI: > 50 µM

## CC(=O)O[C@H]1CCc2c(cc(N)c3c2C(=O)C[C@]2(C)C([C@H](C)CCCC(C)C)CCC32C)C1(C)C (some centres not stated)
K-562 leukemia
  TGI: > 100 µM
UACC-62 melanoma
  TGI: > 100 µM
SF-295 CNS
  TGI: > 100 µM
U251 CNS
  TGI: > 100 µM
SN12C renal
  TGI: > 100 µM
SNB-19 CNS
  TGI: > 100 µM
MALME-3M melanoma
  TGI: > 100 µM
MDA-MB-435
  TGI: > 100 µM
NCI-H23 lung
  TGI: > 100 µM
RXF 393 renal
  TGI: > 100 µM

## CC(NC(=O)N(C)C)NC(=O)N(C)C
K-562 leukemia
  TGI: > 10 µM
UACC-62 melanoma
  TGI: > 10 µM
SF-295 CNS
  TGI: > 10 µM
U251 CNS
  TGI: > 10 µM
SN12C renal
  TGI: > 10 µM
SNB-19 CNS
  TGI: > 10 µM
MALME-3M melanoma
  TGI: > 10 µM
MDA-MB-435
  TGI: > 10 µM
NCI-H23 lung
  TGI: > 10 µM
RXF 393 renal
  TGI: > 10 µM

## O=c1cc(N2CCCC2)[nH]c(=O)n1-c1ccccc1
K-562 leukemia
  TGI: > 100 µM
SF-295 CNS
  TGI: > 100 µM
U251 CNS
  TGI: > 100 µM
SN12C renal
  TGI: > 100 µM
SNB-19 CNS
  TGI: > 100 µM
MALME-3M melanoma
  TGI: > 100 µM
MDA-MB-435
  TGI: > 100 µM
NCI-H23 lung
  TGI: > 100 µM

## Cc1ccc(/C=C2\Cc3c(C)cc(C)cc3C2=O)c(C(=O)O)c1
K-562 leukemia
  TGI: > 100 µM
UACC-62 melanoma
  TGI: > 100 µM
SF-295 CNS
  TGI: > 100 µM
U251 CNS
  TGI: > 100 µM
SN12C renal
  TGI: > 100 µM
SNB-19 CNS
  TGI: > 100 µM
MALME-3M melanoma
  TGI: > 100 µM
MDA-MB-435
  TGI: 88.1 µM
NCI-H23 lung
  TGI: > 100 µM
RXF 393 renal
  TGI: 88.6 µM

## CC(C(=O)O)C(C)(O)C(=O)O (configuration not stated)
K-562 leukemia
  TGI: > 100 µM
UACC-62 melanoma
  TGI: > 100 µM
U251 CNS
  TGI: > 100 µM
SN12C renal
  TGI: > 100 µM
SNB-19 CNS
  TGI: > 100 µM
MALME-3M melanoma
  TGI: > 100 µM
MDA-MB-435
  TGI: > 100 µM
NCI-H23 lung
  TGI: > 100 µM
RXF 393 renal
  TGI: > 100 µM

## OCc1ccc2c(c1)CC1(Cc3ccc(/C=N/O)cc3C1)C2 (configuration not stated)
UACC-62 melanoma
  TGI: > 56.1 µM
SF-295 CNS
  TGI: > 40.8 µM
U251 CNS
  TGI: > 49.3 µM
SN12C renal
  TGI: > 54.5 µM
SNB-19 CNS
  TGI: > 100 µM
MALME-3M melanoma
  TGI: > 78.8 µM
MDA-MB-435
  TGI: 1.51 µM
NCI-H23 lung
  TGI: 56.3 µM

## C\C(=N/N=C1/C(=C\N(C)C)C(=O)NC(=O)N1C)c1ccc(Cl)cc1
K-562 leukemia
  TGI: > 100 µM
UACC-62 melanoma
  TGI: > 100 µM
SF-295 CNS
  TGI: > 100 µM
U251 CNS
  TGI: > 100 µM
SN12C renal
  TGI: > 100 µM
SNB-19 CNS
  TGI: > 100 µM
MALME-3M melanoma
  TGI: > 100 µM
MDA-MB-435
  TGI: > 100 µM
NCI-H23 lung
  TGI: > 100 µM
RXF 393 renal
  TGI: > 100 µM

## Cc1cnc2c(c1)C(=O)C1=C(C2=O)C2OC(=O)CC2OC1(C)C (configuration not stated)
UACC-62 melanoma
  TGI: 0.351 µM
SF-295 CNS
  TGI: 2.68 µM
U251 CNS
  TGI: 0.519 µM
SN12C renal
  TGI: 0.318 µM
SNB-19 CNS
  TGI: 2.61 µM
MALME-3M melanoma
  TGI: 0.191 µM
MDA-MB-435
  TGI: 0.912 µM
NCI-H23 lung
  TGI: 0.986 µM
RXF 393 renal
  TGI: 0.507 µM
